# Assay results published in patent publication US6355799B1, “Substituted benzene compounds, process for their preparation, and herbicidal and defoliant compositions containing them” (ISK Americas Incorporated, priority 1997, dated 2002).
# How the values were obtained:
# Type in all cases: in vivo
# [1] = tested on: upland rice (Oryza sp., var. Tebonnet, RICE); assay: Post-emerge test, crop safety; settings: phytotoxicity rating 0-100 (0 no damage, 100 complete death), 14 days after application
# Method in brief: (§1)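 Fourteen days after spraying, crop and weed injury was graded visually from 0, no effect, to 100, every plant dead. Test substances were dissolved in acetone and applied at 15–1000 g ai/ha with a flat-fan nozzle. Application was either pre-emergence, one day after sowing, or post-emergence at the 2–3 leaf stage.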
# [2] = tested on: field corn (Zea mays L., var. Dekalb 535, CORN); assay: Post-emerge test, crop safety; settings: phytotoxicity rating 0-100 (0 no damage, 100 complete death), 14 days after application
# Method in brief: as §1
# [3] = tested on: large crabgrass (Digitaria sanguinalis, DIGSA); assay: Post-emerge test, greenhouse herbicide activity screening; settings: phytotoxicity rating 0-100 (0 no damage, 100 complete death), 14 days after application
# Method in brief: (§2)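 Herbicidal damage is scored 0 (none) to 100 (complete plant death) two weeks after a simulated field spray. Rates span 15–1000 g ai/ha, delivered in acetone at 187 l/ha. For post-emergence treatments, plants have 2–3 leaves and the spray carries 0.25% v/v non-ionic surfactant.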
# [4] = tested on: ivyleaf morningglory (Ipomoea hederacea, IPOHE); assay: as above; settings: phytotoxicity rating 0-100 (0 no damage, 100 complete death), 14 days after application
# Method in brief: as §2
# [5] = tested on: green foxtail (Setaria viridis, SETVI); assay: as above; settings: phytotoxicity rating 0-100 (0 no damage, 100 complete death), 14 days after application
# Method in brief: as §2
# [6] = tested on: barnyardgrass (Echinochloa crus-galli, ECHCG); assay: as above; settings: phytotoxicity rating 0-100 (0 no damage, 100 complete death), 14 days after application
# Method in brief: as §2
# [7] = tested on: redroot pigweed (Amaranthus retroflexus, AMARE); assay: as above; settings: phytotoxicity rating 0-100 (0 no damage, 100 complete death), 14 days after application
# Method in brief: as §2
# [8] = tested on: velvetleaf (Abutilon theophrasti, ABUTH); assay: as above; settings: phytotoxicity rating 0-100 (0 no damage, 100 complete death), 14 days after application
# Method in brief: as §2
# [9] = tested on: sicklepod (Cassia obtusifolia, CASOB); assay: as above; settings: phytotoxicity rating 0-100 (0 no damage, 100 complete death), 14 days after application
# Method in brief: as §2
# [10] = tested on: lambsquarters (Chenopodium album, CHEAL); assay: as above; settings: phytotoxicity rating 0-100 (0 no damage, 100 complete death), 14 days after application
# Method in brief: as §2
# [11] = tested on: common ragweed (Ambrosia artemisizfolia L., AMBEL); assay: as above; settings: phytotoxicity rating 0-100 (0 no damage, 100 complete death), 14 days after application
# Method in brief: as §2
# [12] = tested on: johnsongrass (Sorghum halepense, SORHA); assay: as above; settings: phytotoxicity rating 0-100 (0 no damage, 100 complete death), 14 days after application
# Method in brief: as §2
# [13] = tested on: upland rice (Oryza sp., var. Tebonnet, RICE); assay: Pre-emerge test, crop safety; settings: pre-emerge, rated 14 days after application, 0 = no damage, 100 = complete death
# Method in brief: as §1
# [14] = tested on: field corn (Zea mays L., var. Dekalb 535, CORN); assay: Pre-emerge test, crop safety; settings: pre-emerge, rated 14 days after application, 0 = no damage, 100 = complete death
# Method in brief: as §1
# [15] = tested on: redroot pigweed (Amaranthus retroflexus, AMARE); assay: Pre-emerge test, greenhouse herbicide activity screening; settings: pre-emerge, rated 14 days after application, 0 = no damage, 100 = complete death
# Method in brief: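 Compounds in acetone were track-sprayed at 187 l/ha, 15–1000 g ai/ha, onto sandy loam pots. Pre-emerge seeds were sown one day before spraying, with surface watering afterwards. Post-emerge plants were at the 2–3 leaf stage and sprayed with 0.25% v/v non-ionic surfactant. Injury was rated 0–100 at 14 days.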
# [16] = tested on: large crabgrass (Digitaria sanguinalis, DIGSA); assay: as above; settings: pre-emerge, rated 14 days after application, 0 = no damage, 100 = complete death
# Method in brief: as §1
# [17] = tested on: ivyleaf morningglory (Ipomoea hederacea, IPOHE); assay: as above; settings: pre-emerge, rated 14 days after application, 0 = no damage, 100 = complete death
# Method in brief: as §1
# [18] = tested on: green foxtail (Setaria viridis, SETVI); assay: as above; settings: pre-emerge, rated 14 days after application, 0 = no damage, 100 = complete death
# Method in brief: as §1
# [19] = tested on: barnyardgrass (Echinochloa crus-galli, ECHCG); assay: as above; settings: pre-emerge, rated 14 days after application, 0 = no damage, 100 = complete death
# Method in brief: as §1
# [20] = tested on: velvetleaf (Abutilon theophrasti, ABUTH); assay: as above; settings: pre-emerge, rated 14 days after application, 0 = no damage, 100 = complete death
# Method in brief: as §1
# [21] = tested on: sicklepod (Cassia obtusifolia, CASOB); assay: as above; settings: pre-emerge, rated 14 days after application, 0 = no damage, 100 = complete death
# Method in brief: as §1
# [22] = tested on: lambsquarters (Chenopodium album, CHEAL); assay: as above; settings: pre-emerge, rated 14 days after application, 0 = no damage, 100 = complete death
# Method in brief: as §1
# [23] = tested on: common ragweed (Ambrosia artemisizfolia L., AMBEL); assay: as above; settings: pre-emerge, rated 14 days after application, 0 = no damage, 100 = complete death
# Method in brief: as §1
# [24] = tested on: johnsongrass (Sorghum halepense, SORHA); assay: as above; settings: pre-emerge, rated 14 days after application, 0 = no damage, 100 = complete death
# Method in brief: as §1
compound,measurement,setting,value
COC(=O)C(=O)Nc1c(OC)c(Cl)cc(F)c1-n1c(=O)cc(C(F)(F)F)n(C)c1=O [2-15],Post-emerge Herbicidal Activity RICE (crop damage),[1]; 63 g ai/ha,0
same,Post-emerge Herbicidal Activity RICE (crop damage),[1]; 250 g ai/ha,0
same,Post-emerge Herbicidal Activity CORN (crop damage),[2]; 63 g ai/ha,0
same,Post-emerge Herbicidal Activity CORN (crop damage),[2]; 250 g ai/ha,0
same,Post-emerge Herbicidal Activity DIGSA,[3]; 63 g ai/ha,0
same,Post-emerge Herbicidal Activity DIGSA,[3]; 250 g ai/ha,0
same,Post-emerge Herbicidal Activity IPOHE,[4]; 63 g ai/ha,40
same,Post-emerge Herbicidal Activity IPOHE,[4]; 250 g ai/ha,90
same,Post-emerge Herbicidal Activity SETVI,[5]; 63 g ai/ha,0
same,Post-emerge Herbicidal Activity SETVI,[5]; 250 g ai/ha,0
same,Post-emerge Herbicidal Activity ECHCG,[6]; 63 g ai/ha,0
same,Post-emerge Herbicidal Activity ECHCG,[6]; 250 g ai/ha,0
same,Post-emerge Herbicidal Activity AMARE,[7]; 63 g ai/ha,0
same,Post-emerge Herbicidal Activity AMARE,[7]; 250 g ai/ha,20
same,Post-emerge Herbicidal Activity ABUTH,[8]; 63 g ai/ha,70
same,Post-emerge Herbicidal Activity ABUTH,[8]; 250 g ai/ha,90
same,Post-emerge Herbicidal Activity CASOB,[9]; 63 g ai/ha,10
same,Post-emerge Herbicidal Activity CASOB,[9]; 250 g ai/ha,10
same,Post-emerge Herbicidal Activity CHEAL,[10]; 63 g ai/ha,40
same,Post-emerge Herbicidal Activity CHEAL,[10]; 250 g ai/ha,60
same,Post-emerge Herbicidal Activity AMBEL,[11]; 63 g ai/ha,10
same,Post-emerge Herbicidal Activity AMBEL,[11]; 250 g ai/ha,40
same,Post-emerge Herbicidal Activity SORHA,[12]; 63 g ai/ha,0
same,Post-emerge Herbicidal Activity SORHA,[12]; 250 g ai/ha,0
same,"Pre-emerge crop damage RICE (phytotoxicity rating, scale 0-100)",[13]; 63 g ai/ha,10
same,"Pre-emerge crop damage RICE (phytotoxicity rating, scale 0-100)",[13]; 250 g ai/ha,0
same,"Pre-emerge crop damage CORN (phytotoxicity rating, scale 0-100)",[14]; 63 g ai/ha,0
same,"Pre-emerge crop damage CORN (phytotoxicity rating, scale 0-100)",[14]; 250 g ai/ha,0
same,"Pre-emerge Herbicidal Activity AMARE (phytotoxicity rating, scale 0-100)",[15]; 63 g ai/ha,0
same,"Pre-emerge Herbicidal Activity AMARE (phytotoxicity rating, scale 0-100)",[15]; 250 g ai/ha,80
same,"Pre-emerge Herbicidal Activity DIGSA (phytotoxicity rating, scale 0-100)",[16]; 63 g ai/ha,0
same,"Pre-emerge Herbicidal Activity DIGSA (phytotoxicity rating, scale 0-100)",[16]; 250 g ai/ha,0
same,"Pre-emerge Herbicidal Activity IPOHE (phytotoxicity rating, scale 0-100)",[17]; 63 g ai/ha,20
same,"Pre-emerge Herbicidal Activity IPOHE (phytotoxicity rating, scale 0-100)",[17]; 250 g ai/ha,30
same,"Pre-emerge Herbicidal Activity SETVI (phytotoxicity rating, scale 0-100)",[18]; 63 g ai/ha,0
same,"Pre-emerge Herbicidal Activity SETVI (phytotoxicity rating, scale 0-100)",[18]; 250 g ai/ha,0
same,"Pre-emerge Herbicidal Activity ECHCG (phytotoxicity rating, scale 0-100)",[19]; 63 g ai/ha,0
same,"Pre-emerge Herbicidal Activity ECHCG (phytotoxicity rating, scale 0-100)",[19]; 250 g ai/ha,0
same,"Pre-emerge Herbicidal Activity ABUTH (phytotoxicity rating, scale 0-100)",[20]; 63 g ai/ha,20
same,"Pre-emerge Herbicidal Activity ABUTH (phytotoxicity rating, scale 0-100)",[20]; 250 g ai/ha,90
same,"Pre-emerge Herbicidal Activity CASOB (phytotoxicity rating, scale 0-100)",[21]; 63 g ai/ha,0
same,"Pre-emerge Herbicidal Activity CASOB (phytotoxicity rating, scale 0-100)",[21]; 250 g ai/ha,0
same,"Pre-emerge Herbicidal Activity CHEAL (phytotoxicity rating, scale 0-100)",[22]; 63 g ai/ha,60
same,"Pre-emerge Herbicidal Activity CHEAL (phytotoxicity rating, scale 0-100)",[22]; 250 g ai/ha,40
same,"Pre-emerge Herbicidal Activity AMBEL (phytotoxicity rating, scale 0-100)",[23]; 63 g ai/ha,0
same,"Pre-emerge Herbicidal Activity AMBEL (phytotoxicity rating, scale 0-100)",[23]; 250 g ai/ha,0
same,"Pre-emerge Herbicidal Activity SORHA (phytotoxicity rating, scale 0-100)",[24]; 63 g ai/ha,0
same,"Pre-emerge Herbicidal Activity SORHA (phytotoxicity rating, scale 0-100)",[24]; 250 g ai/ha,0
